# Laboratory results as given in patent US12264173B2 (GILEAD SCIENCES, INC., priority 2020, dated 2025).
# Where two headings read alike, the source gives them in different places.
# Key:
# Format in all cases: cell-based
# RSV strain A2 = experiment: microbe, parasite or virus in culture; details: Table 3, HEp-2 cells, RSV A2, 4 days, read-out: RSV HEp-2 EC50
# How it was run: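 Cytopathic-effect protection assay: HEp-2 cells (50,000/mL) infected with pre-titered RSV A2 onto 3-fold serial compound dilutions, incubated 4 days at 37° C. Cell viability read by CellTiter-Glo luminescence; percent inhibition derived against 0% and 100% virus-inhibition controls.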
# RSV A2 = experiment: RSV NHBE EC50 (RSV A2 antiviral assay in NHBE cells); details: Table 3, NHBE cells, RSV A2, 4 days, read-out: RSV NHBE EC50
# How it was run: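 Antiviral activity against RSV A2 was determined in NHBE cells used within 6 passages, with cell viability quantified by CellTiter-Glo after a 4-day infection.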
# DENV2 replicon = experiment: DENV-2 Huh-7 Rep EC50 (replicon luminescence); details: read-out: DENV-2 REP Huh7 EC50
# How it was run: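 Huh-7 cells carrying a DENV2 replicon, 5,000 cells/well, were incubated with dosed compounds for 48 h at 37° C. EnduRen live-cell substrate was added 1.5 h before luminescence reading. EC50 came from dose-response against DMSO-only wells.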
# HRV16 = HRV16 HeLa EC50 (cytopathic effect in H1-HeLa cells)
# How it was run: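 H1-HeLa cells seeded one day before, given 3-fold serial compound dilutions in triplicate just prior to infection with pre-titrated virus. Incubated 96 h at 33 °C/5% CO2; protection from cytopathic effect read as viability by CellTiter-Glo luminescence, normalised to infected untreated (0%) and uninfected (100%) controls.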
# [1] = human respiratory syncytial virus, HEp-2, 96 h
# [2] = human respiratory syncytial virus, NHBE, 96 h
# [3] = Dengue virus, DENV2, Huh-7, 48 h
# [4] = 96 h, Table 3; H1-HeLa cells, 96 h; read-out: HRV16 HeLa EC50
# [5] = Table 3, Huh-7 DENV2 replicon cells, 48 hours
# [6] = Table 3; H1-HeLa cells, 96 h; read-out: HRV16 HeLa EC50
SMILES,EC50 (RSV strain A2; [1]),EC50 (RSV A2; [2]),EC50 (DENV2 replicon; [3]),EC50 (HRV16; [4]),EC50 (RSV strain A2),EC50 (RSV A2),EC50 (DENV2 replicon; [5]),EC50 (HRV16; [6])
"CC(C)C(=O)O[C@H]1[C@H](c2ccc3c(N)ncnn23)O[C@](C#N)(CO[P@@](=O)(N[C@@H](C)C(=O)O[C@H]2CC[C@H](C(C)(C)C)CC2)Oc2ccccc2)[C@H]1OC(=O)C(C)C [Example 80, (2R,3S,4S,5S)-5-(4-Aminopyrrolo[2,1-f][1,2,4]triazin-7-yl)-2-((((S)-(((S)-1-(((1r,4S)-4-(tert-butyl)cyclohexyl)oxy)-1-oxopropan-2-yl)amino)(phenoxy)phosphoryl)oxy)methyl)-2-cyanotetrahydrofuran-3,4-diyl bis(2-methylpropanoate)]",1.18 µM,0.158 µM,5.3 µM,1.57 µM,,,,
"CC(C)OC(=O)[C@H](C)N[P@](=O)(OC[C@@]1(C#N)O[C@@H](c2ccc3c(N)ncnn23)[C@H](OC(=O)C(C)C)[C@@H]1OC(=O)C(C)C)Oc1ccccc1 [Example 84, (2R,3S,4S,5S)-5-(4-aminopyrrolo[2,1-f][1,2,4]triazin-7-yl)-2-cyano-2-((((S)-(((S)-1-isopropoxy-1-oxopropan-2-yl)amino)(phenoxy)phosphoryl)oxy)methyl) tetrahydrofuran-3,4-diyl bis(2-methylpropanoate)]",0.058 µM,0.016 µM,13 µM,0.121 µM,,,,
CC(C)C(=O)O[C@H]1[C@H](c2ccc3c(N)ncnn23)O[C@](C#N)(COP(=O)(N[C@@H](C)C(=O)OC[C@H]2CC[C@H](C(F)(F)F)CC2)Oc2ccccc2)[C@H]1OC(=O)C(C)C (stereo partly shown) [Example 87],0.119 µM,0.023 µM,12.3 µM,0.22 µM,,,,
"CC(=O)O[C@H]1[C@H](c2ccc3c(N)ncnn23)O[C@](C#N)(CO[P@@](=O)(N[C@@H](C)C(=O)OC(C)C)Oc2ccccc2)[C@H]1OC(C)=O [Example 89, (2R,3S,4S,5S)-5-(4-Aminopyrrolo[2,1-f][1,2,4]triazin-7-yl)-2-cyano-2-((((S)-(((S)-1-isopropoxy-1-oxopropan-2-yl)amino)(phenoxy)phosphoryl)oxy)methyl) tetrahydrofuran-3,4-diyl diacetate]",0.195 µM,0.126 µM,49.7 µM,0.785 µM,,,,
CCC(=O)OC1C(c2ccc3c(N)ncnn23)OC(C#N)(COP(=O)(NC(C)C(=O)OCC2CCC2)Oc2ccccc2)C1OC(=O)CC (stereo not shown) [Example 92],,,,,0.041 µM,0.033 µM,13.6 µM,0.104 µM
CCC(=O)OC1C(c2ccc3c(N)ncnn23)OC(C#N)(COP(=O)(NC(C)C(=O)OCC2CCC2)Oc2ccccc2)C1OC(=O)CC (stereo not shown) [Example 93],,,,,0.048 µM,0.025 µM,12.8 µM,0.171 µM
CC(=O)O[C@H]1[C@H](c2ccc3c(N)ncnn23)O[C@](C#N)(CO[P@@](=O)(N[C@@H](C)C(=O)OCC2CCC2)Oc2ccccc2)[C@H]1OC(C)=O [Example 95],,,,,0.09 µM,0.02 µM,19.8 µM,0.429 µM
CC(=O)O[C@H]1[C@H](c2ccc3c(N)ncnn23)O[C@](C#N)(CO[P@](=O)(N[C@@H](C)C(=O)OCC2CCC2)Oc2ccccc2)[C@H]1OC(C)=O [Example 96],,,,,0.063 µM,0.02 µM,16.8 µM,0.417 µM
"CC(C)C(=O)O[C@H]1[C@H](c2ccc3c(N)ncnn23)O[C@](C#N)(COP(=O)(NCCOC(=O)C(C)(C)C)Oc2ccccc2)[C@H]1OC(=O)C(C)C (stereo partly drawn) [Example 97, (2R,3S,4S,5S)-5-(4-aminopyrrolo[2,1-f][1,2,4]triazin-7-yl)-2-cyano-2-(((phenoxy((2-(pivaloyloxy)ethyl)amino)phosphoryl)oxy)methyl)tetrahydrofuran-3,4-diyl bis(2-methylpropanoate)]",0.366 µM,> 5 µM,9.05 µM,1.12 µM,,,,
CC(=O)O[C@H]1[C@H](c2ccc3c(N)ncnn23)O[C@](C#N)(CO[P@@](=O)(N[C@@H](C)C(=O)OCC2CC2)Oc2ccccc2)[C@H]1OC(C)=O [Example 102],,,,,0.178 µM,0.018 µM,39.1 µM,0.526 µM
